Patent publication US20230137092A1, “Composition and Method for the Treatment and Prevention of Cardiac, Pulmonary, Dermal, and Renal Fibrosis” (EMERALD HEALTH PHARMACEUTICALS INC., priority 2020, published 2023)

Experiments:
ERK1+2 = assay: Ang II-induced ERK1+2 phosphorylation in hICF, immunoblot; type: cell-based, human; conditions: hICF preincubated with compound, Ang II for 30 minutes
Experimental: The effect of compound of Formula (VIII) on Ang II signaling pathways in hICF was investigated. ERK1+2 and NFAT activation are two pathways activated by Ang-II (Wakatsuki et al., 2004, Trends Biochem Sci, 29:609-617). hICF were preincubated with compound of Formula (VIII), treated with Ang II for 30 minutes, washed with PBS and proteins extracted in 50 μL of lysis buffer (50 mM Tris-HCl pH 7.5, 150 mM NaCl, 1% (v/v) NP-40, 10% (v/v) glycerol, 10 mM NaF, 1 mM Na3VO4, aprotinin (10 μg/ml), leupeptine (10 μg/ml), pepstatin (1 μg/ml) and 1 mM PMSF saturated). Separated proteins in 10% SDS/PAGE gels were transferred to PVDF membranes and blocked in TBS solution containing 0.1% Tween 20 and 5% bovine serum albumin (BSA) for 1 hour at room temperature. Immunodetection of specific proteins was carried out by incubation with primary antibodies against p-ERK (1:1000; #4695 Cell Signaling Technology) and ERK (1:1000, M5670, Sigma). Membranes were incubated with horseradish peroxidase-conjugated secondary antibody was added and proteins detected by chemiluminescence system (GE Healthcare Europe GmbH). Compound of Formula (VIII) inhibited Ang II-induced ERK1+2 phosphorylation (FIG. 16B).

NFAT = assay: Gal4-NFAT / Gal4-Luc reporter assay in hICF; type: cell-based, human; conditions: hICF transfected with Gal4-Luc and Gal4-NFAT, stimulated 6 hours
Experimental: hICF cells were transiently transfected for 24 hours with the Gal4-Luc reporter plasmid (which includes five Gal4 DNA binding sites fused to the luciferase gene) and the Gal4-NFAT1-415plasmid for 24 hours using Roti-Fect (Carl Roth GmbH & Co. KG, Karlsruhe, Germany). Then cells were stimulated for 6 hours and luciferase activity in the cell lysates was measured. The specific transactivation expressed as a percentage of activation relative to control. Compound of Formula (VIII) inhibited Ang II-induced NFAT activation (FIG. 16B).

In the case of `CCCCc1nc(Cl)c(CO)n1Cc1ccc(-c2ccccc2-c2nn[nH]n2)cc1` [Losartan, reference compound], the “Ang II-induced ERK1+2 phosphorylation” value (ERK1+2) is reported as “inhibited” and the “Ang II-induced NFAT activation (luciferase)” value (NFAT) is reported as “inhibited”.
